Article PMC3441526, “KCN1, a Novel Synthetic Sulfonamide Anticancer Agent: In Vitro and In Vivo Anti-Pancreatic Cancer Activities and Preclinical Pharmacology” (PLoS ONE, 2012)
Like-named read-outs stand apart in the source and are kept apart here.

Legend:
[1] = system: Mia Paca-2 cells; assay: Cell cycle measurement by flow cytometry; assay type: cell-based, human; details: for cell cycle distribution, G1 / cell cycle distribution, G2/M / cell cycle distribution, S: 24 h
Protocol: (§1) To determine the effect of KCN1 on the cell cycle, cells (2–3×10^5) were exposed to the test compounds (0, 5, 12.5 or 50 µM) and incubated for 24 h prior to analysis. Cells were trypsinized, washed with PBS, and fixed in 1.5 mL of 95% ethanol at 4°C overnight, followed by incubation with RNAse and staining with propidium iodide (Sigma). The DNA content was determined by flow cytometry, [47].

[2] = system: HPAC cells; assay: Cell cycle measurement by flow cytometry; assay type: cell-based, human; details: 24 h
Protocol: as §1

[3] = system: BxPC3 cells; assay: Cell cycle measurement by flow cytometry; assay type: cell-based, human; details: for cell cycle distribution, G1 / cell cycle distribution, G2/M / cell cycle distribution, S: 24 h
Protocol: as §1

[4] = system: Panc-1 cells; assay: Cell cycle measurement by flow cytometry; assay type: cell-based, human; details: for cell cycle distribution, G1 / cell cycle distribution, G2/M / cell cycle distribution, S: 24 h
Protocol: as §1

[5] = Pharmacokinetic study in mice; assay type: in vivo, nude mice (nu/nu); details: for dose recovered as parental KCN1 from urine: first 24 hr
Protocol: (§2) Female CD-1 and nude mice were administered 35 mg/kg body weight of KCN1 as either a single intravenous injection via a tail vein or via an intraperitoneal injection. At selected time points after dosing, groups of three mice/time point were subjected to a retro-orbital bleed. The blood was collected into heparinized tubes, and plasma was separated by centrifugation. Tissues (brain, skeletal muscle, kidneys, liver, spleen, and heart) were collected by necropsy. Urine and feces were collected on ice for 24 h from mice housed in metabolic cages (n = 3/study). The collection containers and cages were washed twice with 0.9% saline solution, and each urine collection and each wash was analyzed separately, then values were added together for each mouse to determine the total KCN1 present in urine during the collection period. Pharmacokinetic values were derived using Phoenix WinNonlin Version 6.0 (Mountain View, CA).
An HPLC protocol was developed to detect KCN1 in different matrices (plasma, urine or tissue homogenates) using an Agilent 1120 instrument. KCN1 was separated on a Zorbax SB-C18 (5 µm, 150 × 4.6 mm) analytical column with a Zorbax Reliance Cartridge Guard Column (SB-C18), and the eluate was monitored by UV at 254 nm. The mobile phase was composed of “A” (methanol +0.1% Et3N)-“B” (ddH2O+0.1% Et3N) (80∶20, v/v). Prior to application, the mobile phase was filtered and degassed using a Millipore glass filter system with a nylon membrane (0.2 µm). The peaks for KCN1 were used to establish standard curves and for quantitative analysis of samples. Quantification of the compound was achieved by determination of the peak area at the retention time of approximately 4.4 minutes.
Plasma (100 µL) was mixed with 200 µL of methanol, vortexed, and centrifuged to remove precipitated proteins. The supernatant was evaporated to dryness under a stream of air. The residue was dissolved in 100 µL of the mobile phase, and 10 µL was injected onto the HPLC system for analysis. Weighed tissues were homogenized in two to five volumes of PBS (based on the weight of the tissue samples), and portions of the homogenates were processed in the same manner as the plasma samples.

[6] = Pharmacokinetic study, faecal recovery and late detection (strain not stated); assay type: in vivo, mice; details: for initial dose of parental compound recovered in feces: mice
Protocol: as §2

[7] = nude mice, 35 mg/kg, either route

Compound: COc1ccc(S(=O)(=O)N(Cc2ccc3c(c2)C=CC(C)(C)O3)c2ccccc2)cc1OC [KCN1, 3,4-dimethoxy-N-[(2,2-dimethyl-2H-chromen-6-yl)methyl]-N-phenylbenzenesulfonamide]
- cell cycle distribution, G1 ([1]; Mia Paca-2, 5 µM): 50.4±3.6
- cell cycle distribution, G2/M ([1]; Mia Paca-2, 5 µM): 31.6±1.9
- cell cycle distribution, S ([1]; Mia Paca-2, 5 µM): 18.0±0.9
- cell cycle distribution, G1 ([1]; Mia Paca-2, 12.5 µM): 55.2±1.2
- cell cycle distribution, G2/M ([1]; Mia Paca-2, 12.5 µM): 24.6±0.9
- cell cycle distribution, S ([1]; Mia Paca-2, 12.5 µM): 20.2±1.7
- cell cycle distribution, G1 ([1]; Mia Paca-2, 50 µM): 58.9±3.9
- cell cycle distribution, G2/M ([1]; Mia Paca-2, 50 µM): 20.3±1.1
- cell cycle distribution, S ([1]; Mia Paca-2, 50 µM): 20.8±1.5
- concentration at which G1 arrest begins ([1]; Mia Paca-2, 24 h): 5 µM
- cell cycle distribution, G1 ([2]; 5 µM): 62.1±4.9
- cell cycle distribution, G2/M ([2]; 5 µM): 11.8±1.2
- cell cycle distribution, S ([2]; 5 µM): 26.1±3.8
- cell cycle distribution, G1 ([2]; 12.5 µM): 66.8±1.6
- cell cycle distribution, G2/M ([2]; 12.5 µM): 10.9±1.3
- cell cycle distribution, S ([2]; 12.5 µM): 22.4±1.6
- cell cycle distribution, G1 ([2]; 50 µM): 68.8±2.7
- cell cycle distribution, G2/M ([2]; 50 µM): 11.5±1.4
- cell cycle distribution, S ([2]; 50 µM): 19.7±1.4
- concentration at which G1 arrest begins [2]: 5 µM
- cell cycle distribution, G1 ([3]; BXPC3, 5 µM): 52.9±4.1
- cell cycle distribution, G2/M ([3]; BXPC3, 5 µM): 26.4±1.3
- cell cycle distribution, S ([3]; BXPC3, 5 µM): 20.8±3.8
- cell cycle distribution, G1 ([3]; BXPC3, 12.5 µM): 65.1±3.5
- cell cycle distribution, G2/M ([3]; BXPC3, 12.5 µM): 17.4±1.9
- cell cycle distribution, S ([3]; BXPC3, 12.5 µM): 17.5±2.1
- cell cycle distribution, G1 ([3]; BXPC3, 50 µM): 70.8±2.0
- cell cycle distribution, G2/M ([3]; BXPC3, 50 µM): 15.5±1.7
- cell cycle distribution, S ([3]; BXPC3, 50 µM): 13.7±0.9
- concentration at which G1 arrest begins ([3]; BxPC3, 24 h): 5 µM
- cell cycle distribution, G1 ([4]; Panc-1, 5 µM): 40.3±2.2
- cell cycle distribution, G2/M ([4]; Panc-1, 5 µM): 30.9±0.8
- cell cycle distribution, S ([4]; Panc-1, 5 µM): 28.8±3.2
- cell cycle distribution, G1 ([4]; Panc-1, 12.5 µM): 49.8±0.8
- cell cycle distribution, G2/M ([4]; Panc-1, 12.5 µM): 28.8±1.6
- cell cycle distribution, S ([4]; Panc-1, 12.5 µM): 21.4±0.9
- cell cycle distribution, G1 ([4]; Panc-1, 50 µM): 53.3±2.3
- cell cycle distribution, G2/M ([4]; Panc-1, 50 µM): 29.1±1.4
- cell cycle distribution, S ([4]; Panc-1, 50 µM): 17.6±0.9
- concentration at which G1 arrest begins ([4]; Panc-1, 24 h): 12.5 µM
- Tmax ([5]; female, nude (nu/nu), mouse, plasma, ip, nude mice, I.P. 35 mg/kg, read-out: time of maximum plasma level): 2 h
- concentration at 6 h ([5]; female, nude (nu/nu), mouse, plasma, iv, nude mice, I.V. 35 mg/kg, 6 h after dosing): < 300 ng/mL
- concentration at 5 min ([5]; female, nude (nu/nu), mouse, plasma, iv, nude mice, bolus I.V. 35 mg/kg, 5 minutes): 5190 ng/mL
- half-life ([5]; female, nude (nu/nu), mouse, Brain, Nu/nu, IP 35 mg/kg): 0.95 h
- Tmax ([5]; female, nude (nu/nu), mouse, Brain, Nu/nu, IP 35 mg/kg, read-out: Tmax): 1 h
- half-life ([5]; female, nude (nu/nu), mouse, Brain, Nu/nu, IV 35 mg/kg): 3.38 h
- Tmax ([5]; female, nude (nu/nu), mouse, Brain, Nu/nu, IV 35 mg/kg, read-out: Tmax): 0.08 h
- half-life ([5]; female, nude (nu/nu), mouse, Heart, Nu/nu, IP 35 mg/kg): 1.22 h
- Tmax ([5]; female, nude (nu/nu), mouse, Heart, Nu/nu, IP 35 mg/kg, read-out: Tmax): 0.08 h
- half-life ([5]; female, nude (nu/nu), mouse, Heart, Nu/nu, IV 35 mg/kg): 0.36 h
- Tmax ([5]; female, nude (nu/nu), mouse, Heart, Nu/nu, IV 35 mg/kg, read-out: Tmax): 4 h
- half-life ([5]; female, nude (nu/nu), mouse, Kidneys, Nu/nu, IP 35 mg/kg): 22.4 h
- Tmax ([5]; female, nude (nu/nu), mouse, Kidneys, Nu/nu, IP 35 mg/kg, read-out: Tmax): 0.25 h
- half-life ([5]; female, nude (nu/nu), mouse, Kidneys, Nu/nu, IV 35 mg/kg): 1.8 h
- Tmax ([5]; female, nude (nu/nu), mouse, Kidneys, Nu/nu, IV 35 mg/kg, read-out: Tmax): 0.08 h
- half-life ([5]; female, nude (nu/nu), mouse, Liver, Nu/nu, IP 35 mg/kg): 2.52 h
- Tmax ([5]; female, nude (nu/nu), mouse, Liver, Nu/nu, IP 35 mg/kg, read-out: Tmax): 0.5 h
- half-life ([5]; female, nude (nu/nu), mouse, Liver, Nu/nu, IV 35 mg/kg): 3.39 h
- Tmax ([5]; female, nude (nu/nu), mouse, Liver, Nu/nu, IV 35 mg/kg, read-out: Tmax): 2 h
- half-life ([5]; female, nude (nu/nu), mouse, Lungs, Nu/nu, IP 35 mg/kg): 1.04 h
- Tmax ([5]; female, nude (nu/nu), mouse, Lungs, Nu/nu, IP 35 mg/kg, read-out: Tmax): 1 h
- half-life ([5]; female, nude (nu/nu), mouse, Lungs, Nu/nu, IV 35 mg/kg): 2 h
- Tmax ([5]; female, nude (nu/nu), mouse, Lungs, Nu/nu, IV 35 mg/kg, read-out: Tmax): 0.25 h
- half-life ([5]; female, nude (nu/nu), mouse, Muscle, Nu/nu, IP 35 mg/kg): 2.97 h
- Tmax ([5]; female, nude (nu/nu), mouse, Muscle, Nu/nu, IP 35 mg/kg, read-out: Tmax): 0.25 h
- half-life ([5]; female, nude (nu/nu), mouse, Muscle, Nu/nu, IV 35 mg/kg): 2.28 h
- Tmax ([5]; female, nude (nu/nu), mouse, Muscle, Nu/nu, IV 35 mg/kg, read-out: Tmax): 0.08 h
- half-life ([5]; female, nude (nu/nu), mouse, Plasma, Nu/nu, IP 35 mg/kg): 2.65 h
- half-life ([5]; female, nude (nu/nu), mouse, Plasma, Nu/nu, IV 35 mg/kg): 0.6 h
- half-life ([5]; female, nude (nu/nu), mouse, Spleen, Nu/nu, IP 35 mg/kg): 0.81 h
- Tmax ([5]; female, nude (nu/nu), mouse, Spleen, Nu/nu, IP 35 mg/kg, read-out: Tmax): 24 h
- half-life ([5]; female, nude (nu/nu), mouse, Spleen, Nu/nu, IV 35 mg/kg): 1.4 h
- Tmax ([5]; female, nude (nu/nu), mouse, Spleen, Nu/nu, IV 35 mg/kg, read-out: Tmax): 2 h
- dose recovered as parental KCN1 from urine ([5]; nude mice, 35 mg/kg I.P.): less than 0.5%
- dose recovered as parental KCN1 from urine ([5]; nude mice, 35 mg/kg intravenously): less than 1%
- detection in brain [5, 7]: could not be detected after 6 h
- time detectable in heart, lungs, liver, spleen, kidneys and skeletal muscle [5, 7]: at least 24 h
- time plasma concentration still detectable ([5]; nude mice, I.P. 35 mg/kg): ≥ 24 h
- time plasma concentration still detectable ([5]; nude mice, I.V. 35 mg/kg): at least 6 h
- time still detectable at a low level ([6]; after intraperitoneal dosing (data not shown)): at least five days
- initial dose of parental compound recovered in feces ([6]; I.P. injection (data not shown)): Approximately 1%
- initial dose of parental compound recovered in feces ([6]; I.V. injection (data not shown)): less than 1%
